Measurements from PubChem BioAssay AID2060894 (Molecular Pharmacology Branch, DTP, NCI, 2025).
Values belong to the compound of their own block, whether it stands above or below them.

System: K12877-001-R-J1-PDC complex spheroid viability
Experiment: Anticancer human tumor K12877-001-R-J1-PDC patient-derived lung adenocarcinoma cell line growth inhibition [RAS]
Conditions: for viability, T/C: stronger effect = lower value
Description: RAS pathway inhibitors in Combinations in Complex Spheroids
A high-throughput screen of multi-cell type tumor spheroids was designed to identify active combinations of RAS pathway inhibitors and targeted small molecules. Complex spheroids include a stromal component modeled by human endothelial cells (HUVEC) and fibroblasts modeled by human mesenchymal stem cells (MSCs). The concentration ranges selected for each drug and investigational agent were based upon clinically achievable concentrations if the clinical Cmax of the agent was known.
Compounds. The drugs and investigational agents: abemaciclib (NSC768073), cobimetinib (NSC768068), divarasib (GDC6063, NSC841802), docetaxel (NSC628503), GDC-1971 (RLY-1971, NSC841576), gemcitabine (NSC613327), inavolisib (NSC800729), ipatasertib (NSC767898), KB-0742 (NSC834161), MRTX-1133 (NSC836407), osimertinib (NSC779217), RMC-4630 (NSC839698), RMC-6236 (NSC851965), RMC-6291 (NSC852671), Ro-3306 (NSC812927), sapanisertib (NSC764658), SN-38 (NSC673596), staurosporine (NSC755774), SY5609 (NSC837396), and tovorafenib (DAY101, NSC766906), were obtained from the National Cancer Institute (NCI) Developmental Therapeutics Program Chemical Repository. The FDA-approved anticancer drug set is available from the NCI Developmental Therapeutics Program. […] The stock solutions were prepared in dimethyl sulfoxide (DMSO, Sigma-Aldrich, St. Louis, MO, cat. D2650) at 800-fold the tested concentration and stored at -70 degrees C prior to their use. All drugs and investigational agents were tested over a range starting from a high concentration at or near the clinical Cmax and decreasing in half-log increments. If the clinical Cmax for an agent had not been determined, the highest concentration tested was 10 microM.
Cell Culture. All cells were maintained in an incubator at 37 degrees C and 5% CO2 with 95% humidity. The PDC lines were cultured according to standard operating procedures established by the NCI PDMR. All PDCs were thawed and cultured in Matrigel-coated flasks prepared with a working solution of 1X Ham's F-12 nutrient mix, without supplementation (Invitrogen, Waltham, MA, cat. 11765054), 100 U/mL penicillin-streptomycin (Invitrogen, cat. 15140122), and 2.5% Matrigel (Corning Inc., Corning, NY, cat. 354248) for the first three passages. The 362531-283-R-J2-PDC and 782815-120-R-J1-PDC lines were cultured in 6C/Colon 1B media, which includes advanced DMEM/F-12 (Thermo Fisher Scientific, cat. 12634028), 10 mM HEPES (Thermo Fisher Scientific, cat. 15630080), 1X GlutaMAX supplement (Thermo Fisher Scientific, cat. 35050061), 0.1 mg/mL primocin (InvivoGen, San Diego, CA, cat. ant-pm-2), 10% defined fetal bovine serum, heat inactivated (HyClone Laboratories Inc., Logan, UT, cat. SH30070.03HI), 50% L-WRN conditioned media (ATCC, cat. CRL-3276), 1.25 mM N-Acetyl-L-cysteine (Sigma-Aldrich, cat. A9165), 10 mM nicotinamide (Sigma-Aldrich, cat. N0636), 1X B-27 supplement (Thermo Fisher Scientific, cat. 17504044), 1X N-2 supplement (Thermo Fisher Scientific, cat. 17502048), 50 ng/mL human EGF (Thermo Fisher Scientific, cat. PHG0311), and 10 microM Y-27632 dihydrochloride (Tocris Bioscience, cat. 1254). The K12877-001-R-J1-PDC line was cultured in 6I media, which includes all 6C/Colon 1B media plus 10 ng/mL human FGF-10 (PeproTech, cat. 100-26), 1 ng/mL human FGF-2 (PeproTech, cat. 100-18B), 1 µM prostaglandin E2 (Tocris Bioscience, cat. 2296), […] hydrocortisone (Sigma-Aldrich, cat. H4001), and […] bovine insulin (Sigma-Aldrich, cat. I6634). The K86415-001-R-J1-PDC line was cultured in 6D media, which includes all 6C/Colon 1B media components minus the L-WRN conditioned media. The 485176-168-R4-J1-PDC was cultured in PANC media, which includes all 6C/Colon 1B media plus 100 ng/mL human FGF-10 (PeproTech, cat. 100-26), 500 nM SB-431542 (Selleckchem, cat. S1067), and 10 nM gastrin (Tocris Bioscience, cat. 3006). […]
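Further: spheroids exposed to agents for one week before readout.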

- IC50 (curve of first compound, second compound 0.00316 µM): > 1 µM
- IC50 (curve of first compound, second compound 0.01 µM): > 1 µM
- IC50 (curve of first compound, second compound 0.0316 µM): > 1 µM
- IC50 (curve of first compound, second compound 0.1 µM): > 1 µM
- IC50 (curve of first compound, second compound 0.316 µM): > 1 µM
- IC50 (curve of first compound, second compound 1 µM): > 1 µM
SMILES: O=C(c1ccc(F)c(F)c1Nc1ccc(I)cc1F)N1CC(O)([C@@H]2CCCCN2)C1 + C=CC(=O)N1CCN(c2nc(OCC3CCCN3C)nc3c(F)c(-c4nc(N)cc(C)c4C(F)(F)F)c(Cl)cc23)C(C)C1
- viability, T/C (second compound 0.00316 µM, first compound 0.00316 µM): 104%
- viability, T/C (second compound 0.00316 µM, first compound 0.01 µM): 103%
- viability, T/C (second compound 0.00316 µM, first compound 0.0316 µM): 89.5%
- viability, T/C (second compound 0.00316 µM, first compound 0.1 µM): 91.7%
- viability, T/C (second compound 0.00316 µM, first compound 0.316 µM): 72.2%
- viability, T/C (second compound 0.00316 µM, first compound 1 µM): 54.5%
- viability, T/C (second compound 0.01 µM, first compound 0.00316 µM): 94.5%
- viability, T/C (second compound 0.01 µM, first compound 0.01 µM): 95%
- viability, T/C (second compound 0.01 µM, first compound 0.0316 µM): 78.9%
- viability, T/C (second compound 0.01 µM, first compound 0.1 µM): 90.7%
- viability, T/C (second compound 0.01 µM, first compound 0.316 µM): 68.1%
- viability, T/C (second compound 0.01 µM, first compound 1 µM): 58.3%
- viability, T/C (second compound 0.0316 µM, first compound 0.00316 µM): 93%
- viability, T/C (second compound 0.0316 µM, first compound 0.01 µM): 85.2%
- viability, T/C (second compound 0.0316 µM, first compound 0.0316 µM): 77.5%
- viability, T/C (second compound 0.0316 µM, first compound 0.1 µM): 87.6%
- viability, T/C (second compound 0.0316 µM, first compound 0.316 µM): 71.1%
- viability, T/C (second compound 0.0316 µM, first compound 1 µM): 66.4%
- viability, T/C (second compound 0.1 µM, first compound 0.00316 µM): 85.2%
- viability, T/C (second compound 0.1 µM, first compound 0.01 µM): 89.3%
- viability, T/C (second compound 0.1 µM, first compound 0.0316 µM): 83.7%
- viability, T/C (second compound 0.1 µM, first compound 0.1 µM): 82.2%
- viability, T/C (second compound 0.1 µM, first compound 0.316 µM): 72.4%
- viability, T/C (second compound 0.1 µM, first compound 1 µM): 55.4%
- viability, T/C (second compound 0.316 µM, first compound 0.00316 µM): 85.7%
- viability, T/C (second compound 0.316 µM, first compound 0.01 µM): 83.3%
- viability, T/C (second compound 0.316 µM, first compound 0.0316 µM): 84.7%
- viability, T/C (second compound 0.316 µM, first compound 0.1 µM): 89.4%
- viability, T/C (second compound 0.316 µM, first compound 0.316 µM): 72.4%
- viability, T/C (second compound 0.316 µM, first compound 1 µM): 59%
- viability, T/C (second compound 1 µM, first compound 0.00316 µM): 79.5%
- viability, T/C (second compound 1 µM, first compound 0.01 µM): 79.3%
- viability, T/C (second compound 1 µM, first compound 0.0316 µM): 78.1%
- viability, T/C (second compound 1 µM, first compound 0.1 µM): 103%
- viability, T/C (second compound 1 µM, first compound 0.316 µM): 75.3%
- viability, T/C (second compound 1 µM, first compound 1 µM): 57.2%

- IC50 (curve of compound): < 0.0316 µM
SMILES: CC(=O)OC12COC1CC(O)C1(C)C(=O)C(O)C3=C(C)C(OC(=O)C(O)C(NC(=O)OC(C)(C)C)c4ccccc4)CC(O)(C(OC(=O)c4ccccc4)C21)C3(C)C (centres undefined)
- viability, T/C (compound 0.0316 µM): 8.58% [middle of 4 runs]
- viability, T/C (compound 0.1 µM): 6.5% [middle of 4 runs]
- viability, T/C (compound 0.316 µM): 5.06% [middle of 4 runs]
- viability, T/C (compound 1 µM): 4.96% [middle of 4 runs]
- viability, T/C (compound 3.16 µM): 6.68% [middle of 4 runs]
- viability, T/C (compound 10 µM): 15% [middle of 4 runs]
